IC50 cell viability and efficacy data for 20 compounds are collected here from the supplement of paper PMC12137928.

Counter-ions that a name gives are not always drawn. Bounds are passed on as bounds.

In assay [1] the test system is HCT116. Conditions: 72 h. The procedure, abridged: (§1)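 HCT116 cells went into 1536-well plates at 250 per well. CellTiter-Glo luminescence was expressed relative to vehicle (0%) and positive control (-100%) and then pattern-corrected. Both IC50 and maximal efficacy were taken from four-parameter Hill fits.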
The subject of assay [2] is HCT116. Kind of assay: efficacy (maximum % inhibition of viability vs DMSO); higher = more cytotoxic. The settings on record: 72 h. The method, boiled down: as §1

Consider `CCC(C)C1O[C@]2(C=C[C@@H]1C)C[C@@H]1CC(C/C=C(\C)[C@@H](OC3C[C@H](OC)[C@@H](OC4C[C@H](OC)[C@@H](O)[C@H](C)O4)[C@H](C)O3)[C@@H](C)/C=C/C=C3\COC4[C@H](O)C(C)=CC(C(=O)O1)[C@]34O)O2` (stereo not given in full) [Avermectin B1a], for which the IC50 cell viability with HCT116 [1] (ICRF193 0 nM) is 8.2 µM; with HCT116 [1] (ICRF193 200 nM) it was > 45.8 µM. The compound further gave an efficacy in the assay with HCT116 [2] (ICRF193 0 nM) of 92.3%.
`CCCOC(C(=O)OC1CCN(C)CC1)(c1ccccc1)c1ccccc1` [Propiverine hydrochloride]: the IC50 cell viability with HCT116 [1] (ICRF193 0 nM) is > 45.8 µM; with HCT116 [1] (ICRF193 200 nM) it was 16.4 µM. In the assay on HCT116 [2] (ICRF193 200 nM), this compound had an efficacy of 45%.
As for `CC[C@H]1CN2CCc3cc(OC)c(OC)cc3[C@@H]2C[C@@H]1C[C@H]1NCCc2cc(OC)c(OC)cc21` [EMETINE DIHYDROCHLORIDE], the values for the IC50 cell viability in the assay on HCT116 [1] (ICRF193 0 nM) and in the assay with HCT116 [1] (ICRF193 200 nM) were 0.146 µM and 0.13 µM, respectively. The efficacy in the assay with HCT116 [2] (ICRF193 0 nM) was determined as 70.8%; in the assay with HCT116 [2] (ICRF193 200 nM), 76.6%.
On the same counts, the results for `Nc1ncn([C@@H]2O[C@H](CO)[C@@H](O)[C@H]2O)c(=O)n1` [5-Azacitidine] are 8.2 µM, 8.2 µM, 121% and 98.6%.
On the same counts, the results for `COc1cc([C@@H]2c3cc4c(cc3[C@@H](O[C@@H]3O[C@@H]5CO[C@@H](C)O[C@H]5[C@H](O)[C@H]3O)[C@H]3COC(=O)[C@H]23)OCO4)cc(OC)c1O` [Etoposide] are 29.1 µM, 2.91 µM, 66.7% and 99.1%.
For `O=C(NC1CCN(CCCCC2(C(=O)NCC(F)(F)F)c3ccccc3-c3ccccc32)CC1)c1ccccc1-c1ccc(C(F)(F)F)cc1` [Lomitapide], the IC50 cell viability amounted to 16.4 µM in the assay on HCT116 [1] (ICRF193 0 nM) and 20.6 µM with HCT116 [1] (ICRF193 200 nM). For the same compound, the figures for the efficacy with HCT116 [2] (ICRF193 0 nM) and in the assay on HCT116 [2] (ICRF193 200 nM) were 117% and 115%, respectively.
On the same counts, the results for `COC(=O)[C@H](c1ccccc1Cl)N1CCc2sccc2C1` [Clopidogrel bisulfate] are 18.3 µM, 23.1 µM, 67.2% and 76.8%.
The like results for `CCN1\C(=C/C=C/C=C/c2sc3ccccc3[n+]2CC)Sc2ccccc21` [Dithiazanine chloride] were, in that order, 23.1 µM, 20.6 µM, 96.7% and 99%.
The like results for `CO[C@H]1C[C@@H]2CC[C@@H](C)[C@@](O)(O2)C(=O)C(=O)N2CCCC[C@H]2C(=O)O[C@H]([C@H](C)C[C@@H]2CC[C@@H](O)[C@H](OC)C2)CC(=O)[C@H](C)/C=C(\C)[C@@H](O)[C@@H](OC)C(=O)[C@H](C)C[C@H](C)/C=C/C=C/C=C/1C` [Sirolimus] were, in that order, 20.6 µM, 29.1 µM, 91.7% and 88.6%.
For `CN(C)C/C=C/C(=O)Nc1cc2c(Nc3ccc(F)c(Cl)c3)ncnc2cc1O[C@H]1CCOC1` [Afatinib (BIBW2992)], the values for the IC50 cell viability in the assay with HCT116 [1] (ICRF193 0 nM) and in the assay on HCT116 [1] (ICRF193 200 nM) were 29.1 µM and 18.3 µM, respectively. Further, the efficacy in the assay on HCT116 [2] (ICRF193 0 nM) amounted to 110%; in the assay on HCT116 [2] (ICRF193 200 nM) it was 130%.
The like results for `CN(C)CC/C=C1/c2ccccc2Sc2ccc(Cl)cc21` [Chlorprothixene] were, in that order, 16.4 µM, 25.9 µM, 66.1% and 68.9%.
On the same counts, the results for `O=C(/C=C/c1cccc(S(=O)(=O)Nc2ccccc2)c1)NO` [Belinostat] are 1.3 µM, 1.16 µM, 100% and 62.1%.
As to `COc1ccccc1OCCNCC(O)COc1cccc2[nH]c3ccccc3c12` (stereo not given) [Carvedilol tartrate], the IC50 cell viability in the assay on HCT116 [1] (ICRF193 0 nM) stood at 20.6 µM; with HCT116 [1] (ICRF193 200 nM) it was 29.1 µM. Also, the efficacy in the assay with HCT116 [2] (ICRF193 0 nM) was 96.8%; in the assay on HCT116 [2] (ICRF193 200 nM), 102%.
Turning to `C=CCN1CC[C@]23CCCC[C@H]2[C@H]1Cc1ccc(O)cc13` [Levallorphan], the IC50 cell viability was > 45.8 µM in the assay on HCT116 [1] (ICRF193 0 nM) and 25.9 µM in the assay on HCT116 [1] (ICRF193 200 nM). For the same compound, in the assay on HCT116 [2] (ICRF193 200 nM), the efficacy was 42.1%.
For the compound `COC1=C(OC)C(=O)C(CCCCCCCCCCO)=C(C)C1=O` [Idebenone], the IC50 cell viability in the assay on HCT116 [1] (ICRF193 0 nM) and with HCT116 [1] (ICRF193 200 nM) was 20.6 µM in each case. Moreover, the results for the efficacy in the assay with HCT116 [2] (ICRF193 0 nM) and in the assay with HCT116 [2] (ICRF193 200 nM) were 49.5% and 56.6%, respectively.
For the compound `N=C(N)c1ccc(OCCCOc2ccc(C(=N)N)cc2Br)c(Br)c1` [Dibromopropamidine dihydrochloride], the IC50 cell viability was > 45.8 µM with HCT116 [1] (ICRF193 0 nM) and 18.3 µM with HCT116 [1] (ICRF193 200 nM). Also, the efficacy in the assay on HCT116 [2] (ICRF193 200 nM) stood at 51.6%.
`NC(=O)c1cccc2cn(-c3ccc([C@@H]4CCCNC4)cc3)nc12` [MK-4827]: the IC50 cell viability in the assay with HCT116 [1] (ICRF193 0 nM) came out at 29.1 µM; with HCT116 [1] (ICRF193 200 nM), 18.3 µM. The efficacy in the assay with HCT116 [2] (ICRF193 0 nM) came out at 72.9%; in the assay with HCT116 [2] (ICRF193 200 nM), 114%.
The like results for `CC(C)c1c(C(=O)Nc2ccccc2)c(-c2ccccc2)c(-c2ccc(F)cc2)n1CC[C@@H](O)C[C@@H](O)CC(=O)O` [Atorvastatin calcium] were, in that order, 18.3 µM, 18.3 µM, 60.2% and 70.6%.
On the same counts, the results for `CCCCCCCCCCCCCCCC[N+](C)(C)C` [Hexadecyltrimethylammonium bromide] are 5.8 µM, 7.3 µM, 103% and 91.6%.
Take `NC(=O)N1c2ccccc2CC(=O)c2ccccc21` [Oxcarbazepine]: the figures for the IC50 cell viability in the assay on HCT116 [1] (ICRF193 0 nM) and in the assay with HCT116 [1] (ICRF193 200 nM) were 18.3 µM and > 45.8 µM, respectively. The compound also yielded an efficacy in the assay with HCT116 [2] (ICRF193 0 nM) of 52.3%.
